Results reported in ChEMBL document CHEMBL4706567, “Transthyretin Amyloidogenesis Inhibitors: From Discovery to Current Developments” (J Med Chem, 2020).

How the values were obtained:
Transthyretin [1] = molecular target: Transthyretin (Homo sapiens, UniProt P02766, V50M); assay: Stabilization of TTR V30M mutant (unknown origin) assessed as inhibition of protein-mediated amyloid fibril formation
Transthyretin [2] = molecular target: Transthyretin (Homo sapiens, UniProt P02766); assay: Binding affinity to wild type TTR (unknown origin) expressed in Escherichia coli BL21/DE3 by Circular dichroism spectroscopy

Q: Which Kd (Transthyretin [1]) does the source give for `COc1cc(O)c(CC=C(C)C)c(O)c1C(=O)/C=C/c1ccc(O)cc1` [XANTHOHUMOL] here?
A: Its Kd is 12 µM.

Q: How did the Kd (Transthyretin [2]) turn out when `O=C(O)c1ccccc1Nc1cccc(C(F)(F)F)c1` [FLUFENAMIC ACID] was run?
A: Its Kd is 0.03 µM.

Q: How did the Kd (Transthyretin [1]) turn out when `O=C(CCc1ccc(O)cc1)c1c(O)cc(O)cc1O` [PHLORETIN] was run?
A: Its Kd is 8.1 µM.

Q: Which Kd (Transthyretin [2]) does the source give for `O=C(O)Cc1ccccc1Nc1c(Cl)cccc1Cl` [DICLOFENAC] here?
A: Its Kd is 0.06 µM.
